# Reference: US6515025B2, “Use of ethynyl alanine amino diol compounds to inhibit enzymatic conversion of angiotensinogen to angiotensin I” (Pharmacia Corporation, priority 1991, dated 2003)
# “And” between values parts separate entries of the source, which are not always exact repeats. Equal entries are not always repeated. Where two headings read alike, the source gives them in different places.
# Assay: Oral bioavailability studies in dogs (plasma concentration by bioassay)
# Assay type: in vivo
# Conditions: dog
# Protocol: The bioavailability in marmosets and dogs was determined by sampling the blood via the femoral vein at various time points after administering the renin inhibitor compounds of the invention in polyethylene glycol 400 at an intragastric dose of 10 mg/kg or at an intravenous dose of 1 mg/kg. Compound concentration in plasma was determined using the bioassay technique described below. The percent bioavailability was calculated by dividing the area under the concentration-vs.-time curve obtained from the intragastric experiment by the area under the concentration-vs.-time curve obtained from the intravenous experiment (adjusting for different doses), and multiplying the result by 100%. The bioavailibility of Example 1 compound is 27% in marmosets and 33% in dogs.
# Renin inhibitor plasma concentrations were determined by a bioassay. The plasma samples were extracted with acetonitrile and the extract was evaporated to dryness under nitrogen. Residue was dissolved in 4% bovine serum albumin containing 0.9% NaCl and 5% EDTA. The dissolved residue (0.1 ml) was incubated with a reaction mixture containing human plasma (0.12 ml), 5% phenylmethysulfonylfluoride (1.2 ul), 10% neomycin (2.4 ul), 0.5 M TES buffer (pH 7.4, 24 ul), and 0.6 mU/ml recombinant human renin (1000 U/mg, 50 ul) at 37° C. for 90 minutes. The renin activity was determined by a standard angiotensin I radioimmunoassay (New England Nuclear Corp.). The amount of test compound in the plasma was determined by comparing the extent of inhibition of renin activity with that produced by a known amount of test compound added to plasma and analyzed above.
smiles,measurement,setting,value
"C#CC[C@H](NC(=O)C(CC(=O)N(C)CCN(C)C)Cc1ccccc1)C(=O)NC(CC1CCCCC1)[C@@H](O)C(O)CC(C)C (relative stereo) [Example 1, N1-[1R*-[[[1S,1R*-(cyclohexylmethyl)-2S*,3R*-dihydroxy-5-methylhexyl]amino]carbonyl]-3-butynyl]-N4-[2-(dimethylamino)ethyl]-N4-methyl-2S*-(phenylmethyl)butanediamide]","Oral (%) Bioavail, Mean ± SE",IG 10 mg/kg vs IV 1 mg/kg,33.1 ± 3.8%
same,Oral (%) Bioavail,"IG 10 mg/kg vs IV 1 mg/kg, individual animals",35.8% and 25.6% and 38.0%
same,Estimated Plasma Concentration,"IG at 10 mg/kg, 15 min, individual animals, 10 mg/kg",105.7 ng/mL and <2.0 ng/mL and 265.6 ng/mL
same,Estimated Plasma Concentration,"IG at 10 mg/kg, 30 min, individual animals, 10 mg/kg",495.9 ng/mL and 330.4 ng/mL and 864.7 ng/mL
same,Estimated Plasma Concentration,"IG at 10 mg/kg, 1 hr, individual animals, 10 mg/kg",859.6 ng/mL
same,Estimated Plasma Concentration,"IG at 10 mg/kg, 2 hr, individual animals, 10 mg/kg",352.7 ng/mL and 554.5 ng/mL
same,Estimated Plasma Concentration,"IG at 10 mg/kg, 4 hr, individual animals, 10 mg/kg",68.8 ng/mL and 130.3 ng/mL
same,Estimated Plasma Concentration,"IG at 10 mg/kg, 6 hr, individual animals, 10 mg/kg",47.1 ng/mL and 72.4 ng/mL
same,Estimated Plasma Concentration,"IG at 10 mg/kg, 8 hr, individual animals, 10 mg/kg",25.4 ng/mL and 45.4 ng/mL
same,Estimated Plasma Concentration,"IG at 10 mg/kg, 24 hr, individual animals, 10 mg/kg",8.4 ng/mL and 8.0 ng/mL
same,Estimated Plasma Concentration,"IV at 1 mg/kg, 2 min, individual animals, 1 mg/kg",3284.4 ng/mL and 2982.7 ng/mL
same,Estimated Plasma Concentration,"IV at 1 mg/kg, 5 min, individual animals, 1 mg/kg",680.9 ng/mL and 521.1 ng/mL
same,Estimated Plasma Concentration,"IV at 1 mg/kg, 10 min, individual animals, 1 mg/kg",307.1 ng/mL and 218.0 ng/mL
same,Estimated Plasma Concentration,"IV at 1 mg/kg, 15 min, individual animals, 1 mg/kg",144.4 ng/mL and 146.9 ng/mL
same,Estimated Plasma Concentration,"IV at 1 mg/kg, 30 min, individual animals, 1 mg/kg",102.8 ng/mL and 122.5 ng/mL
same,Estimated Plasma Concentration,"IV at 1 mg/kg, 1 hr, individual animals, 1 mg/kg",67.6 ng/mL and 50.0 ng/mL
same,Estimated Plasma Concentration,"IV at 1 mg/kg, 2 hr, individual animals, 1 mg/kg",56.0 ng/mL and 69.8 ng/mL
same,Estimated Plasma Concentration,"IV at 1 mg/kg, 4 hr, individual animals, 1 mg/kg",23.5 ng/mL
same,Estimated Plasma Concentration,"IV at 1 mg/kg, 6 hr, individual animals, 1 mg/kg",10.2 ng/mL and 13.5 ng/mL
same,Estimated Plasma Concentration,"IV at 1 mg/kg, 8 hr, individual animals, 1 mg/kg",4.9 ng/mL and 6.1 ng/mL
same,Estimated Plasma Concentration,"IV at 1 mg/kg, 24 hr, individual animals, 1 mg/kg",1.5 ng/mL and 1.3 ng/mL
same,Vd,individual animals,8.7 L/kg and 8.3 L/kg
same,t1/2,individual animals,4.4 h and 4.3 h
same,half-life,"plasma, dogs, read-out: terminal half-life (converted)",4.7 h
same,Vd,"plasma, dogs, read-out: volume of distribution",9.5 L/kg
same,Vd,"plasma, individual animals, read-out: Vd",11.5 L/kg
same,half-life,"plasma, individual animals, read-out: t1/2 (converted)",5.3 h
same,concentration at 2 min,"plasma, iv, 1 mg/kg, IV at 1 mg/kg, 2 min, individual animals, read-out: Estimated Plasma Concentration",2420 ng/mL
same,concentration at 2 min,"plasma, iv, 1 mg/kg, IV at 1 mg/kg, 2 min, read-out: Estimated Plasma Concentration, Mean ± SE",2890 ± 254 ng/mL
same,concentration at 5 min,"plasma, iv, 1 mg/kg, IV at 1 mg/kg, 5 min, individual animals, read-out: Estimated Plasma Concentration",613 ng/mL
same,concentration at 5 min,"plasma, iv, 1 mg/kg, IV at 1 mg/kg, 5 min, read-out: Estimated Plasma Concentration, Mean ± SE",605 ± 46.3 ng/mL
same,concentration at 10 min,"plasma, iv, 1 mg/kg, IV at 1 mg/kg, 10 min, individual animals, read-out: Estimated Plasma Concentration",299 ng/mL
same,concentration at 10 min,"plasma, iv, 1 mg/kg, IV at 1 mg/kg, 10 min, read-out: Estimated Plasma Concentration, Mean ± SE",275 ± 28.4 ng/mL
same,concentration at 15 min,"plasma, iv, 1 mg/kg, IV at 1 mg/kg, 15 min, individual animals, read-out: Estimated Plasma Concentration",218 ng/mL
